# Measured values as given in patent publication US8003649B2 (AstraZeneca AB, priority 2007, dated 2011).
# Target: T1, Androgen Receptor (AR) (Homo sapiens, UniProt P10275, T878A)
# T1 construct: cell based immuno-fluorescence assay using the LNCaP prostate epithelial cell line; endogenous in cells; host or cells: LNCaP clone FGC (ATCC CRL-1740)
# T1 sequence (P10275 1-920 T878A): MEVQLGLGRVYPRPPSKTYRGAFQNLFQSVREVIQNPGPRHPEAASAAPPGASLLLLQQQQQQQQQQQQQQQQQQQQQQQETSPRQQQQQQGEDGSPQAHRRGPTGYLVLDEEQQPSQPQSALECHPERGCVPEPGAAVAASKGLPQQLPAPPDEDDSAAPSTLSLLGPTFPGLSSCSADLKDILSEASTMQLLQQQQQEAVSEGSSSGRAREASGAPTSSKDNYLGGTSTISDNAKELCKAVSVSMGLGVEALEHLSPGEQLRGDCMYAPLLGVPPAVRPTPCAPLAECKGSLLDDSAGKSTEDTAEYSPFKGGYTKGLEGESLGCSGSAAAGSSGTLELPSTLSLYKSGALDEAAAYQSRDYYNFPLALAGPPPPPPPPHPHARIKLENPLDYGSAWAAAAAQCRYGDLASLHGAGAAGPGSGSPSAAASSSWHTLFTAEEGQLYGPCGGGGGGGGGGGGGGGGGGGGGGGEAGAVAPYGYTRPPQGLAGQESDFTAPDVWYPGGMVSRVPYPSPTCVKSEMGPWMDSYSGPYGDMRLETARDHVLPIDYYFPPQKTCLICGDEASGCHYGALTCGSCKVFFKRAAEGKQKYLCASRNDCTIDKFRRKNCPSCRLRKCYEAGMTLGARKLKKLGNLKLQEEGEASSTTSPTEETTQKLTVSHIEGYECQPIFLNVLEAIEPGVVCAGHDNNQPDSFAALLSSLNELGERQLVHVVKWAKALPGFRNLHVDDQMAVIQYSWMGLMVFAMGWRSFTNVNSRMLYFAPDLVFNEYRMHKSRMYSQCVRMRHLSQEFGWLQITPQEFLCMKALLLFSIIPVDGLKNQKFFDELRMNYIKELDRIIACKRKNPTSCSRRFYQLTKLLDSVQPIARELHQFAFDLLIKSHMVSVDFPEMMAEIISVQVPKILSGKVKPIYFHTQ
# Assay: LNCaP Androgen Receptor Down-regulation Cell Assay (immunofluorescence end point)
# Format: cell-based
# Settings: LNCaP prostate carcinoma cells, compound incubation 20-22 hours, 50% reduction of the AR signal; read-out: Androgen Receptor Down-regulation Assay (a) IC50/μM
# Method in brief: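 AR loss reported as IC50 from curve fits of fluorescence dose-response data, with AR immunostained and read by laser-scanning cytometry. Compound exposure was 20-22 h at 37° C in LNCaP cells grown in 5% charcoal-stripped FBS and plated overnight beforehand.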
row,DC50,Compound
1,3.6 µM,COCC(=O)Nc1ccc(C2CCN(c3ccc4nnc(C(F)(F)F)n4n3)CC2)cc1 [Example 664]
2,0.94 µM,CN1CCN(CCCC(=O)Nc2ccc(C3CCN(c4ccc5nnc(C(F)(F)F)n5n4)CC3)cc2)CC1 [Example 666]
3,1 µM,O=C(CCCN1CCCC1)Nc1ccc(C2CCN(c3ccc4nnc(C(F)(F)F)n4n3)CC2)cc1 [Example 667]
4,1.1 µM,O=C(CCCN1CCOCC1)Nc1ccc(C2CCN(c3ccc4nnc(C(F)(F)F)n4n3)CC2)cc1 [Example 668]
5,0.6 µM,COCCCC(=O)Nc1ccc(C2CCN(c3ccc4nnc(C(F)(F)F)n4n3)CC2)cc1 [Example 669]
6,0.67 µM,CN(C)CCCOc1cccc(C2CCN(c3ccc4nnc(C(F)(F)F)n4n3)CC2)c1 [Example 670]
7,1.6 µM,FC(F)(F)c1nnc2ccc(N3CCC(c4cccc(OCCN5CCCC5)c4)CC3)nn12 [Example 671]
8,0.58 µM,FC(F)(F)c1nnc2ccc(N3CCC(c4cccc(OCCN5CCNCC5)c4)CC3)nn12 [Example 672]
9,0.73 µM,FC(F)(F)c1nnc2ccc(N3CCC(c4cccc(OCCCN5CCNCC5)c4)CC3)nn12 [Example 673]
10,1.1 µM,Cc1cc(COc2cccc(C3CCN(c4ccc5nnc(C(F)(F)F)n5n4)CC3)c2)no1 [Example 674]
11,1.5 µM,CN(C)CCOc1cccc(C2CCN(c3ccc4nnc(C(F)(F)F)n4n3)CC2)c1 [Example 675]
12,0.56 µM,FC(F)(F)c1nnc2ccc(N3CCC(c4cccc(OCCN5CCOCC5)c4)CC3)nn12 [Example 676]
13,4.5 µM,CN1CCC(Oc2cccc(C3CCN(c4ccc5nnc(C(F)(F)F)n5n4)CC3)c2)CC1 [Example 677]
14,0.6 µM,FC(F)(F)c1nnc2ccc(N3CCC(c4cccc(OCc5cnco5)c4)CC3)nn12 [Example 680]
15,0.58 µM,Cn1nccc1CCOc1cccc(C2CCN(c3ccc4nnc(C(F)(F)F)n4n3)CC2)c1 [Example 682]
16,0.69 µM,COCCOc1cccc(C2CCN(c3ccc4nnc(C(F)(F)F)n4n3)CC2)c1 [Example 684]
17,5.7 µM,CN(CCO)C(=O)c1cccc(OC2CCN(c3ccc4nnc(C(F)(F)F)n4n3)CC2)c1 [Example 685]
18,4.2 µM,O=C(NCCN1CCCC1)c1cccc(OC2CCN(c3ccc4nnc(C(F)(F)F)n4n3)CC2)c1 [Example 686]
19,3.8 µM,CN1CCN(C(=O)c2cccc(OC3CCN(c4ccc5nnc(C(F)(F)F)n5n4)CC3)c2)CC1 [Example 687]
20,6.6 µM,O=C(c1cccc(OC2CCN(c3ccc4nnc(C(F)(F)F)n4n3)CC2)c1)N1CCNCC1 [Example 688]
21,4.1 µM,COCCNC(=O)c1cccc(OC2CCN(c3ccc4nnc(C(F)(F)F)n4n3)CC2)c1 [Example 689]

row,DC50,Compound
1,> 28 µM,O=C(c1cccc(OC2CCN(c3ccc4nnc(C(F)(F)F)n4n3)CC2)c1)N1CC[C@@H](O)C1 [Example 691]
2,4.2 µM,O=C(c1cccc(OC2CCN(c3ccc4nnc(C(F)(F)F)n4n3)CC2)c1)N1CCCC1 [Example 692]
3,2.3 µM,O=C(c1cccc(OC2CCN(c3ccc4nnc(C(F)(F)F)n4n3)CC2)c1)N1CCOCC1 [Example 693]
4,3.2 µM,CNC(=O)c1cccc(OC2CCN(c3ccc4nnc(C(F)(F)F)n4n3)CC2)c1 [Example 694]
5,3.3 µM,CCNC(=O)c1cccc(OC2CCN(c3ccc4nnc(C(F)(F)F)n4n3)CC2)c1 [Example 695]
6,4.2 µM,CN(C)CCNC(=O)c1cccc(OC2CCN(c3ccc4nnc(C(F)(F)F)n4n3)CC2)c1 [Example 696]
7,> 22 µM,O=C(NCCO)c1cccc(OC2CCN(c3ccc4nnc(C(F)(F)F)n4n3)CC2)c1 [Example 697]
8,5.6 µM,O=C(NCCN1CCOCC1)c1cccc(OC2CCN(c3ccc4nnc(C(F)(F)F)n4n3)CC2)c1 [Example 698]
9,2.1 µM,COCCN(C)C(=O)c1cccc(OC2CCN(c3ccc4nnc(C(F)(F)F)n4n3)CC2)c1 [Example 699]
10,7.1 µM,O=C(c1cccc(OC2CCN(c3ccc4nnc(C(F)(F)F)n4n3)CC2)c1)N1CC[C@H](O)C1 [Example 700]
11,> 12 µM,Cc1cc(CNC(=O)c2cccc(OC3CCN(c4ccc5nnc(C(F)(F)F)n5n4)CC3)c2)no1 [Example 702]
12,5.5 µM,CN1CCC(NC(=O)c2cccc(OC3CCN(c4ccc5nnc(C(F)(F)F)n5n4)CC3)c2)CC1 [Example 703]
13,4.2 µM,CN1CCN(CCNC(=O)c2cccc(OC3CCN(c4ccc5nnc(C(F)(F)F)n5n4)CC3)c2)CC1 [Example 704]
14,5.3 µM,O=C(NCCn1cccn1)c1cccc(OC2CCN(c3ccc4nnc(C(F)(F)F)n4n3)CC2)c1 [Example 705]
15,2.9 µM,Cn1ccc(CNC(=O)c2cccc(OC3CCN(c4ccc5nnc(C(F)(F)F)n5n4)CC3)c2)n1 [Example 706]
16,7.9 µM,O=C(NCc1cocn1)c1cccc(OC2CCN(c3ccc4nnc(C(F)(F)F)n4n3)CC2)c1 [Example 707]
17,6.2 µM,"CN1CCN(CC(=O)Nc2ccc(C3CCN(c4ccc5nnc(C(F)(F)F)n5n4)CC3)cc2)CC1 [Example 708, 2-(4-methylpiperazin-1-yl)-N-[4-[1-[3-(trifluoromethyl)[1,2,4]triazolo[4,3-b]pyridazin-6-yl]piperidin-4-yl]phenyl]acetamide]"
18,1.7 µM,O=C(CN1CCCC1)Nc1ccc(C2CCN(c3ccc4nnc(C(F)(F)F)n4n3)CC2)cc1 [Example 709]
19,2.1 µM,O=C(CN1CCOCC1)Nc1ccc(C2CCN(c3ccc4nnc(C(F)(F)F)n4n3)CC2)cc1 [Example 710]
20,2.5 µM,CN1CCN(CC(=O)Nc2cccc(C3CCN(c4ccc5nnc(C(F)(F)F)n5n4)CC3)c2)CC1 [Example 711]
21,3 µM,O=C(CN1CCCC1)Nc1cccc(C2CCN(c3ccc4nnc(C(F)(F)F)n4n3)CC2)c1 [Example 712]

row,DC50,Compound
1,0.81 µM,O=C(CN1CCOCC1)Nc1cccc(C2CCN(c3ccc4nnc(C(F)(F)F)n4n3)CC2)c1 [Example 713]
2,> 9.9 µM,FC(F)(F)c1nnc2ccc(N3CCC(Oc4ncc(Cl)cn4)CC3)nn12 [Example 714]
3,0.81 µM,FC(F)(F)c1nnc2ccc(N3CCC(Oc4cccc(Cl)n4)CC3)nn12 [Example 716]
4,2.9 µM,FC(F)(F)c1nnc2ccc(N3CCC(Oc4cccnc4Br)CC3)nn12 [Example 717]
5,3.6 µM,FC(F)(F)c1nnc2ccc(N3CCC(Oc4cccnc4)CC3)nn12 [Example 718]
6,3.5 µM,FC(F)(F)c1ccc(OC2CCN(c3ccc4nnc(C(F)(F)F)n4n3)CC2)nc1 [Example 719]
7,2.7 µM,FC(F)(F)c1nnc2ccc(N3CCC(Oc4ccc(Cl)nc4)CC3)nn12 [Example 720]
8,2.9 µM,FC(F)(F)c1nnc2ccc(N3CCC(Oc4ccc(Br)cn4)CC3)nn12 [Example 721]
9,4.1 µM,FC(F)(F)c1nnc2ccc(N3CCC(Oc4cncc(Br)c4)CC3)nn12 [Example 722]
10,0.9 µM,FC(F)(F)c1nnc2ccc(N3CCC(Oc4ncccc4Br)CC3)nn12 [Example 723]
11,0.69 µM,FC(F)(F)c1nnc2ccc(N3CCC(Oc4ccc(Cl)cc4)CC3)nn12 [Example 724]
12,1.4 µM,CN(C)CCCOc1ccc(C2CCN(c3ccc4nnc(C(F)(F)F)n4n3)CC2)cc1 [Example 726]
13,1.5 µM,"FC(F)(F)c1nnc2ccc(N3CCC(c4ccc(OCCCN5CCNCC5)cc4)CC3)nn12 [Example 728, 6-[4-[4-(3-piperazin-1-ylpropoxy)phenyl]piperidin-1-yl]-3-(trifluoromethyl)[1,2,4]triazolo[4,3-b]pyridazine]"
14,0.92 µM,Cc1cc(COc2ccc(C3CCN(c4ccc5nnc(C(F)(F)F)n5n4)CC3)cc2)no1 [Example 729]
15,0.72 µM,CN(C)CCOc1ccc(C2CCN(c3ccc4nnc(C(F)(F)F)n4n3)CC2)cc1 [Example 730]
16,1.1 µM,FC(F)(F)c1nnc2ccc(N3CCC(c4ccc(OCCN5CCOCC5)cc4)CC3)nn12 [Example 731]
17,1.1 µM,CN1CCN(CCCOc2ccc(C3CCN(c4ccc5nnc(C(F)(F)F)n5n4)CC3)cc2)CC1 [Example 732]
18,0.6 µM,FC(F)(F)c1nnc2ccc(N3CCC(c4ccc(OCc5ccon5)cc4)CC3)nn12 [Example 733]
19,2.5 µM,FC(F)(F)c1nnc2ccc(N3CCC(c4ccc(OCc5cnco5)cc4)CC3)nn12 [Example 734]
20,1.9 µM,CN1CCN(CCOc2ccc(C3CCN(c4ccc5nnc(C(F)(F)F)n5n4)CC3)cc2)CC1 [Example 735]
21,0.4 µM,Cn1nccc1COc1ccc(C2CCN(c3ccc4nnc(C(F)(F)F)n4n3)CC2)cc1 [Example 736]
